Test results as given in patent publication US4352803A, “Novel naphthyridine derivatives, intermediates thereof, processes for preparation thereof, and use thereof” (Dainippon Pharmaceutical Co., Ltd., priority 1978, dated 1982).
Values after ≈ are worked out from the molar mass of the structure shown. “Also recorded” adds a separate entry of the source. Read-outs that look alike come from different tables or passages of the source.

Legend:
[1] = tested on: Pseudomonas aeruginosa No. 12; experiment: In vitro antibacterial activity (MIC), Pseudomonas aeruginosa No. 12; assay type: cell-based; conditions: Pseudomonas aeruginosa No. 12; read-out: minimum inhibitory concentration (MIC)
Source text: (§1) (MIC) (μg/ml) Method; Chemotherapy, 22(6), 1126 (1974)

[2] = tested on: Salmonella enteritidis No. 1891; experiment: In vitro antibacterial activity (MIC), Salmonella enteritidis No. 1891; assay type: cell-based; conditions: Salmonella enterica, read-out: minimum inhibitory concentration (MIC)
Source text: as §1

[3] = tested on: Serratia marcescens IFC 3736; experiment: In vitro antibacterial activity (MIC), Serratia marcescens IFC 3736; assay type: cell-based
Source text: as §1

[4] = tested on: Enterobacter cloacae P-2540; experiment: In vitro antibacterial activity (MIC), Enterobacter cloacae P-2540; assay type: cell-based
Source text: as §1

[5] = tested on: Shigella flexneri 2a; experiment: In vitro antibacterial activity (MIC), Shigella flexneri 2a; assay type: cell-based; conditions: read-out: minimum inhibitory concentration (MIC)
Source text: as §1

[6] = tested on: Shigella flexneri 4a P-330; experiment: In vitro antibacterial activity (MIC), Shigella flexneri 4a P-330; assay type: cell-based; conditions: 4AP330, read-out: minimum inhibitory concentration (MIC)
Source text: as §1

[7] = tested on: Staphylococcus aureus No. 50774; experiment: in vivo efficacy against systemic infection in mice, Staphylococcus aureus No. 50774; conditions: NO.50774, in Mus musculus, po, 336 h
Experimental: Male mice (ddY) weighing about 20 g
Intravenous infection with (about
5 × 10^8 cells/mouse) of a bacterial
(§2) Twice, about 5 minutes and 6 hours after infection.

[8] = tested on: Corynebacterium pyogenes C-21; experiment: In vitro antibacterial activity (MIC), Corynebacterium pyogenes C-21; assay type: cell-based; conditions: Rhodococcus (subgen. Prescottella) equi, C21; Corynebacterium pyogenes C-21; read-out: minimum inhibitory concentration (MIC)
Source text: as §1

[9] = tested on: Salmonella typhimurium 8-9; experiment: In vitro antibacterial activity (MIC), Salmonella typhimurium 8-9; assay type: cell-based; conditions: Salmonella enterica, read-out: minimum inhibitory concentration (MIC)
Source text: as §1

[10] = tested on: Escherichia coli P-140a; experiment: In vitro antibacterial activity (MIC), Escherichia coli P-140a; assay type: cell-based; conditions: Escherichia coli, read-out: minimum inhibitory concentration (MIC)
Source text: as §1

[11] = tested on: Klebsiella pneumoniae No. 13; experiment: In vitro antibacterial activity (MIC), Klebsiella pneumoniae No. 13; assay type: cell-based
Source text: as §1

[12] = tested on: Pseudomonas aeruginosa Tsuchijima; experiment: In vitro antibacterial activity (MIC), Pseudomonas aeruginosa Tsuchijima; assay type: cell-based; conditions: Pseudomonas aeruginosa Tsuchijima; read-out: minimum inhibitory concentration (MIC)
Source text: as §1

[13] = tested on: Escherichia coli P-5101; experiment: in vivo efficacy against systemic infection in mice, Escherichia coli P-5101; conditions: P5101, in Mus musculus, po, 168 h
Experimental: Male mice (ddY) weighing about 20 g
Intraperitoneal infection with (about
9 × 10^6 cells/mouse) of a bacterial
(§3) suspension in trypto-soy broth with 4% mucin.
as §2

[14] = tested on: Streptococcus faecalis P-2473; experiment: In vitro antibacterial activity (MIC), Streptococcus faecalis P-2473; assay type: cell-based; conditions: Enterococcus faecalis, P2473; Streptococcus faecalis P-2473; read-out: minimum inhibitory concentration (MIC)
Source text: as §1

[15] = tested on: Streptococcus pyogenes 65A; experiment: In vitro antibacterial activity (MIC), Streptococcus pyogenes 65A; assay type: cell-based; conditions: read-out: minimum inhibitory concentration (MIC)
Source text: as §1

[16] = tested on: Pseudomonas aeruginosa No. 12; experiment: in vivo efficacy against systemic infection in mice, Pseudomonas aeruginosa No. 12; conditions: NO.12, in Mus musculus, po, 168 h
Experimental: Male mice (ddY) weighing about 20 g
(3) Pseudomonas aeruginosa No. 12;
(about 5 × 10^3 cells/mouse) of a bacterial
as §3, §2
The numerals in the table show ED50 (mg/kg). ED50 values were

[17] = tested on: Staphylococcus aureus No. 50774; experiment: In vitro antibacterial activity (MIC), Staphylococcus aureus No. 50774; assay type: cell-based
Source text: as §1

[18] = tested on: Proteus morganii Kono; experiment: In vitro antibacterial activity (MIC), Proteus morganii Kono; assay type: cell-based; conditions: Morganella morganii, read-out: minimum inhibitory concentration (MIC)
Source text: as §1

[19] = tested on: Gram-positive bacteria and Gram-negative bacteria; experiment: In vitro antibacterial activity against 19 strains of bacteria (overall); assay type: cell-based; conditions: comparisons are with compounds of the invention
Source text: as §1

[20] = tested on: Staphylococcus aureus 209P JC-1; experiment: In vitro antibacterial activity (MIC), Staphylococcus aureus 209P JC-1; assay type: cell-based; conditions: Staphylococcus aureus 209P JC-1; read-out: minimum inhibitory concentration (MIC)
Source text: as §1

[21] = tested on: Proteus mirabilis P-2381; experiment: In vitro antibacterial activity (MIC), Proteus mirabilis P-2381; assay type: cell-based
Source text: as §1

[22] = in vivo; conditions: for LD50 at 168 h: mouse, in vivo, po
Experimental: The number of dead mice was counted after 7 days, and the value of median lethal dose (LD50, mg/kg) was calculated in accordance with the Behrens-Kaerber method.

[23] = tested on: Escherichia coli P-5101; experiment: In vitro antibacterial activity (MIC), Escherichia coli P-5101; assay type: cell-based
Source text: as §1

[24] = tested on: Escherichia coli NIHJ JC-2; experiment: In vitro antibacterial activity (MIC), Escherichia coli NIHJ JC-2; assay type: cell-based; conditions: Escherichia coli, NIHJJC2, read-out: minimum inhibitory concentration (MIC)
Source text: as §1

[25] = tested on: Gram-positive and Gram-negative bacteria; experiment: in vivo therapeutic efficacy against systemic infections in mice (overall); set-up: species or system mice (ddY); conditions: systemic infections with Gram-positive and Gram-negative bacteria
[26] = IFC3736, Serratia marcescens IFC 3736, read-out: minimum inhibitory concentration (MIC)
[27] = Klebsiella pneumoniae No. 13, read-out: minimum inhibitory concentration (MIC)
[28] = Staphylococcus aureus No. 50774, read-out: minimum inhibitory concentration (MIC)
[29] = P2381, Proteus mirabilis P-2381, read-out: minimum inhibitory concentration (MIC)
[30] = P5101, Escherichia coli P-5101, read-out: minimum inhibitory concentration (MIC)
[31] = Enterobacter cloacae, P2540, read-out: minimum inhibitory concentration (MIC)

Compound | MIC [1] [µg/mL] | MIC ([2]; ENTERITIDIS) [µg/mL] | MIC [3, 26] [µg/mL] | MIC [5] [µg/mL] | MIC [6] [µg/mL] | ED50 [7] [mg/kg] | MIC [8] [µg/mL] | MIC [10] [µg/mL] | MIC [11, 27] [µg/mL] | MIC [12] [µg/mL] | ED50 [13] [mg/kg] | MIC [14] [µg/mL] | MIC ([15]; Streptococcus pyogenes 65A) [µg/mL] | ED50 [16] [mg/kg] | MIC [17, 28] [µg/mL] | MIC [18] [µg/mL] | antibacterial activity (in words) [19] | MIC [20] [µg/mL] | MIC [21, 29] [µg/mL] | MIC [24] [µg/mL] | other results
CCn1cc(C(=O)O)c(=O)c2cc(F)c(N3CCN(C)CC3)nc21 [Compound B, 1-Ethyl-6-fluoro-1,4-dihydro-7-(4-methyl-1-piperazinyl)-4-oxo-1,8-naphthyridine-3-carboxylic acid] | 3.13 (≈ 9.36 µM) | 0.1 (≈ 0.299 µM) | 1.56 (≈ 4.67 µM) | 0.39 (≈ 1.17 µM) | 0.78 (≈ 2.33 µM) | 4.8 | 1.56 (≈ 4.67 µM) | 0.39 (≈ 1.17 µM) | 0.39 (≈ 1.17 µM) | 1.56 (≈ 4.67 µM) | 1.2 | 12.5 (≈ 37.4 µM) | 6.25 (≈ 18.7 µM) | 10.6 | 1.56 (≈ 4.67 µM) | 0.78 (≈ 2.33 µM) | equivalent or higher antibacterial activity | 1.56 (≈ 4.67 µM) | 1.56 (≈ 4.67 µM) | 0.39 (≈ 1.17 µM) | MIC ([4]; P2540, Enterobacter cloacae P-2540, read-out: minimum inhibitory concentration (MIC)): 0.39 µg/mL (≈ 1.17 µM); MIC ([9]; Salmonella typhimurium 8-9): 0.2 µg/mL (≈ 0.598 µM); toxicity (in words) ([22]; acute, oral, mice): extremely high toxicity; LD50 at 168 h [22]: 210 mg/kg; MIC [23, 30]: 0.2 µg/mL (≈ 0.598 µM)
CCn1cc(C(=O)O)c(=O)c2ccc(N3CCNCC3)nc21 [Compound A, 1-Ethyl-1,4-dihydro-4-oxo-7-(1-piperazinyl)-1,8-naphthyridine-3-carboxylic acid] | 25 (≈ 82.7 µM) | – | – | 6.25 (≈ 20.7 µM) | 12.5 (≈ 41.3 µM) | > 100 | 50 (≈ 165 µM) | 6.25 (≈ 20.7 µM) | – | 25 (≈ 82.7 µM) | – | > 100 | 50 (≈ 165 µM) | > 200 | 50 (≈ 165 µM) | 6.25 (≈ 20.7 µM) | much inferior antibacterial activity; also recorded: clearly inferior | 25 (≈ 82.7 µM) | 25 (≈ 82.7 µM) | 6.25 (≈ 20.7 µM) | MIC ([2]; Salmonella enteritidis No. 1891): 1.56 µg/mL (≈ 5.16 µM); MIC ([3]; Serratia marcescens, IFC3736, read-out: minimum inhibitory concentration (MIC)): 12.5 µg/mL (≈ 41.3 µM); MIC [4, 31]: 6.25 µg/mL (≈ 20.7 µM); MIC ([9]; TYPHIMURIUM): 6.25 µg/mL (≈ 20.7 µM); MIC ([11]; Klebsiella pneumoniae, NO.13, read-out: minimum inhibitory concentration (MIC)): 12.5 µg/mL (≈ 41.3 µM); MIC [23, 30]: 3.13 µg/mL (≈ 10.4 µM); therapeutic effect / in vivo antibacterial activity (in words) [25]: clearly inferior
CCn1cc(C(=O)O)c(=O)c2cc(Cl)c(N3CCNCC3)cc21 [Compound C, 6-Chloro-1-ethyl-1,4-dihydro-4-oxo-7-(1-piperazinyl)quinoline-3-carboxylic acid] | 3.13 (≈ 9.32 µM) | 0.2 (≈ 0.596 µM) | 0.78 (≈ 2.32 µM) | 0.39 (≈ 1.16 µM) | 0.2 (≈ 0.596 µM) | ~100 | 1.56 (≈ 4.65 µM) | 0.2 (≈ 0.596 µM) | 0.78 (≈ 2.32 µM) | 3.13 (≈ 9.32 µM) | ~15 | 6.25 (≈ 18.6 µM) | – | > 100 | – | 0.39 (≈ 1.16 µM) | clearly inferior | 0.78 (≈ 2.32 µM) | – | 0.39 (≈ 1.16 µM) | MIC [4, 31]: 0.2 µg/mL (≈ 0.596 µM); MIC ([9]; TYPHIMURIUM): 0.2 µg/mL (≈ 0.596 µM); MIC ([15]; Streptococcus pyogenes, 65A): 6.25 µg/mL (≈ 18.6 µM); MIC ([17]; Staphylococcus aureus, NO.50774, read-out: minimum inhibitory concentration (MIC)): 1.56 µg/mL (≈ 4.65 µM); MIC ([21]; Proteus mirabilis, P2381, read-out: minimum inhibitory concentration (MIC)): 0.39 µg/mL (≈ 1.16 µM); LD50 at 168 h [22]: > 2000 mg/kg; MIC ([23]; Escherichia coli, P5101, read-out: minimum inhibitory concentration (MIC)): 0.2 µg/mL (≈ 0.596 µM); therapeutic effect / in vivo antibacterial activity (in words) [25]: clearly inferior
